Measurements from publication PMC9413201, “Covalent Proteomimetic Inhibitor of the Bacterial FtsQB Divisome Complex” (Journal of the American Chemical Society, 2022).
Numbered stars: 1 amine (or outer) side, 2 acyl side, 3 side chain; on linkers, the order of the positions; unused ones are H or OH. Bridge positions count the residues as written; N and C are the ends. Square brackets hold non-standard residues; d marks the D form. Peptide text beside a SMILES is read from it. * marks the point of attachment. X1 = O=C([C@H](CCCCCC=[*:3])N[*:1])[*:2]; Nle = CCCC[C@H](N)C(=O)O; BrAc = O=C(CBr)*

Tests used:
E. coli 87 = test: Zebrafish larvae infection model (E. coli 87 expressing mScarlet); type: in vivo, zebrafish (Danio rerio) larvae; settings: L8S1 3.125 μM, 17fα 70 μM, 15 zebrafish per condition
Description: 1.13 Microinjection of zebrafish larvae with E.coli 87 expressing mScarlet Transparent Casper zebrafish (Danio rerio) larvae were infected and treated according to protocols described by Van der Sar et al. and Bernard et al..7,8 In brief, zebrafish larvae collected from a laboratory-breeding colony kept at 24 °C and a 12:12 h dark/light regime. Larvae were selected based on morphology according to hours post fertilization (hpf) and kept at 28 °C. All protocols followed the international guidelines on the protection of animals used for scientific purposes specified by the EU Directive 2010/63/EU, which allows zebrafish larvae to be used up to the moment of free-living (5–7 dpf). Larvae were dechorionated at 28 hpf and anaesthetized in 0.2% tricaine methanesulfonate (MS222, Fluka A-5040). Larvae were individually infected with 1 nL, containing approximately 150-200 CFU ([…]), of mScarlet expressing clinical isolate E. coli 87 via microinjection of the caudal vein as described previously.9 One hour post infection, larvae were treated with L8S1, 17fα or a combination of the two via another microinjection of 1 nL in the caudal vein. To correct dilution of the treatment upon injection in the vein (1 nL in 250 nL zebrafish larvae volume), treatments were diluted in 0.1% phenol red (Sigma-Aldrich, p-0290) in phosphate buffered saline (PBS) to 250x the concentration as tested in vitro. Zebrafish larvae were kept at 30 °C throughout the experiment and survival of the larvae, based on heartbeat, was determined every 24 h for 2 d. Moreover, 18 h post infection larvae were anaesthetized using MS222 and bacterial load was determined using an Olympus IX83 fluorescence microscope (4x objective magnification, Hamamatsu ORCA-Flash 4.0 camera) at specific wavelength for detection of red fluorescence (excitation/emission, 580/610 nm). Obtained images were analyzed using CellProfiler 3.19 (Broad Institute, Cambridge, MA, USA) with a custom-made automated analysis pipeline to count and quantify pixel intensity within the larvae. Integrated red fluorescence intensity per larvae was used as a quantification of bacterial burden.

FtsQ(50–276) [1] = target: T1, FtsQ(50–276) (Escherichia coli, UniProt P06136); type: biochemical, E. coli; set-up: pET16b FtsQ(50˗276), a His6 fusion; made in house; host or cells: Escherichia coli BL21 DE3; settings: peptide 125 μM, FtsQ(50–276) 50 μM, 37 °C, 1 or 3 h
T1 sequence (P06136 50-276): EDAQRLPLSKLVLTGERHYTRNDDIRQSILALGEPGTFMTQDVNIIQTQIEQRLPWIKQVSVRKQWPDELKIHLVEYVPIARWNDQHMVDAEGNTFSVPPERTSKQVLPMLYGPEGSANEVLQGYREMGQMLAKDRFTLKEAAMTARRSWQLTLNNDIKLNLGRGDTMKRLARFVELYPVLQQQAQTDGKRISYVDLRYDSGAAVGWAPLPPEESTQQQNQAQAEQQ
Description: 1.5 Protein modification assay
To determine the reactivity of the different modifiers FtsQ(50˗276) was diluted to a concentration of 100 µM in 20 mM NH4HCO3 buffer (pH 7.6, 150 mM NaCl). The individual peptides were diluted to a concentration of 250 μM in the same buffer. Equal volumes of both solutions were mixed and incubated at 37 °C for the given time period (1 h or 3 h). The reaction was quenched using 5x SDS sample buffer (pH 6.8, 1.875 g TRIS-Cl, 25 mL glycerol, 5 g SDS, 12.5 mL β-mercaptoethanol, 0.5 % bromphenol blue and add 50 mL ddH2O). Samples were heated to 96 °C for 2 min and subsequently analysed by 17 % tris/tricine PAGE (15 min at 90 V and then 3:45 h at 150 V). PageRuler™ Prestained Protein Ladder, 10 to 180 kDa (Thermo Scientific™) was used as a ladder.
Staining was performed using standard Coomassie Staining Solution (40 mL EtOH, 0.3 g Coomassie Blue R250, 0.3 g Coomassie Blue G250, ad 100 mL ddH2O.) and then destained using water.
17 % Tris/Tricine gel (2x):
Running gel: 1.6 mL H2O, 5.5 mL AB-mix, 2.5 mL Buffer A, 100 μL 10% APS, 10 μL 1% TEMED Stacking gel: 2.1 mL H2O, 0.5 mL AB-mix, 0.38 mL Buffer A, 50 μL 10% APS, 5 μL 1% TEMED […]
Buffer A (4x) pH 8.45 3M Tris, 0.3 % SDS; Anode Buffer (10x) pH 8.8, 3M Tris; Cathode buffer (10x) 1M Tris, […]

FtsQ(50–276) [2] = target: T1, FtsQ(50–276); test: LC/MS analysis of modified FtsQ(50–276); type: biochemical, E. coli; set-up: pET16b FtsQ(50˗276), a His6 fusion; made in house; host or cells: Escherichia coli BL21 DE3; settings: HPLC/MS, deconvolution; expected for reaction with 1 equiv ΔMW = 2122 g/mol; 37 °C, NH4HCO3 buffer pH 7.6
Description: 1.6 LC/MS-analysis of modified FtsQ(50˗276)
To determine the reactivity of 17fα, FtsQ(50˗276) was diluted to a concentration of 100 μM in 20 mM NH4HCO3 buffer (pH 7.6, 150 mM NaCl). The peptide 17fα was diluted to a concentration of 250 μM in the same buffer.
Equal volumes of both solutions were mixed and incubated at 37 °C for the given time period (1 h or 3 h). The reaction was quenched by 4-fold dilution in ACN/H2O (1:1) + 0.1 % TFA.
20 μL of the resulting solution were injected and analysed by analytical reverse-phase HPLC (1260 Infinity II, Agilent Technology; flow rate of 0.3 mL·min-1, A: water with 0.1% FA, B: 80% iPrOH, 10% ACN, 10% H2O with 0.1% FA; AdvanceBio RP-mAB C4 column, 2.1×50 mm, 3.5 µm particle size) using a 10 min gradient (20-80% B) coupled to a mass spectrometer (Infinity Lab LC/MSD XT, Agilent Technology) using API-ES (MSD signal settings: Polarity: Positive; scan mass range: 500-3000; Fragmentor 70). Analytical HPLC chromatograms at 210 nm and MS spectra, masses and m/z ratios are shown in the appendix – analytics part. […]
Morphology assays were executed to assess the physiological change of E.coli cells upon exposure to different peptides. All steps in this protocol were performed under sterile conditions. For each assay, 20 mL of fresh MOPS medium was prepared (40 mM MOPS, 4 mM tricine, 0.01 mM FeSO-4, 9.5 mM NH4Cl, 0.276 mM K2SO4, 0.5

CCCC[C@@H]1NC(=O)[C@H](CO)NC(=O)[C@H](CC(C)C)NC(=O)[C@H](CCC(=O)O)NC(=O)[C@H](CC(N)=O)NC(=O)[C@@H](NC(=O)[C@H](C)NC(C)=O)CCCCCC=CCCCCC[C@@H](C(=O)N[C@@H](CCCCNC(=O)CBr)C(=O)N[C@@H](Cc2ccccc2)C(=O)N[C@@H](Cc2ccc(O)cc2)C(=O)N[C@@H](CCCNC(=N)N)C(=O)N[C@@H](CC(C)C)C(N)=O)NC(=O)CNC(=O)[C@@H]2CCCN2C(=O)[C@H](CCCNC(=N)N)NC(=O)[C@H]([C@@H](C)O)NC1=O [17fα] (Ac-A[X1]NELS[Nle]TRPG[X1]K(BrAc)FYRL-NH2; staple 2-12)
Survival rate of zebrafish larvae after 24 h (mean ± SD) (E. coli 87; infected with E. coli 87 (189 CFU), treated 1 h post infection by microinjection, survival by heartbeat, n = 4 replicates, SD): 20.0 ±16.3 | Survival rate of zebrafish larvae after 24 h, replicate #1 (E. coli 87; replicate #1, E. coli 87 (189 CFU)): 0 | Survival rate of zebrafish larvae after 24 h, replicate #2 (E. coli 87; replicate #2, E. coli 87 (189 CFU)): 40 | Survival rate of zebrafish larvae after 24 h, replicate #3 (E. coli 87; replicate #3, E. coli 87 (189 CFU)): 20 | Survival rate of zebrafish larvae after 24 h, replicate #4 (E. coli 87; replicate #4, E. coli 87 (189 CFU)): 20 | specificity of FtsQ(50–276) modification (number of up-shifted bands) (FtsQ(50–276) [1]): robust and selective covalent modification | ΔMW of FtsQ(50–276) after treatment (obtained mass difference) (FtsQ(50–276) [2]): 2124 g/mol
